In the assay the test system is NLRP3. Briefly: IL-1β secretion assay in PMA-differentiated, LPS/nigericin-stimulated THP-1 cells (384-well, ELISA read-out). In kind it is cell-based, human. In short, it runs like this: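 Secreted IL-1β quantified by capture ELISA from supernatants of PMA-differentiated THP-1 cells (30K per well). Sequence: LPS 25 ng/mL priming 2 h, compound 1 h, nigericin 2 h; dose-responses normalized between high (LPS plus 5 μM nigericin) and low (LPS alone) controls.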

Where [1] appears, read: Homo sapiens, THP-1, Table 4, IL-1β secretion, LPS/nigericin-stimulated THP-1 cells, read-out: IC50.
[2] abbreviates: Homo sapiens, THP-1, IL-1β secretion, PMA-differentiated THP-1 cells, LPS then nigericin stimulation, ELISA read at 450 nm, read-out: Activity.
The mark [3] stands for this setting: Table 4, IL-1β secretion, LPS/nigericin-stimulated THP-1 cells, read-out: IC50.
[4] abbreviates: IL-1β secretion, PMA-differentiated THP-1 cells, LPS then nigericin stimulation, ELISA read at 450 nm, read-out: Activity.

Read-outs that look alike come from different tables or passages of the source.

For `O=C(CN1CC2(CC2)c2cc(Br)ccc2C1=O)Nc1ccc(OC(F)F)nc1` [Example 420, 2-(6-bromo-1-oxospiro[3H-isoquinoline-4,1′-cyclopropane]-2-yl)-N-[6-(difluoromethoxy)pyridin-3-yl]acetamide], under setting [1], the IC50 turned out to be 3800 nM.

For the compound `N#Cc1cccc2oc(NC(=O)CN3CC4(CC4)c4cc(Br)ccc4C3=O)nc12` [Example 356, 2-(6-bromo-1-oxospiro[3H-isoquinoline-4,1′-cyclopropane]-2-yl)-N-(4-cyano-1,3-benzoxazol-2-yl)acetamide], the IC50 under setting [1] stood at 2300 nM.

As to `O=C(CN1CC2(CC2)c2cc(Br)ccc2C1=O)Nc1nc2ccccc2o1` [Example 205, N-(1,3-benzoxazol-2-yl)-2-(6-bromo-1-oxospiro[3H-isoquinoline-4,1′-cyclopropane]-2-yl)acetamide], the IC50 runs as follows: under setting [2], less than 10000 nM; under setting [1], 306 nM.

For `O=C(CN1CC2(CC2)c2cc(Br)ccc2C1=O)Nc1cccc2nccn12` [Example 116, 2-(6-bromo-1-oxospiro[3H-isoquinoline-4,1′-cyclopropane]-2-yl)-N-imidazo[1,2-a]pyridin-5-ylacetamide], the IC50 under setting [2] was less than 10000 nM and the IC50 under setting [1] was determined as 4160 nM.

For `O=C(CN1CC2(CC2)c2cc(Br)ccc2C1=O)NC1CCN(c2cccnc2)CC1` [Example 369, 2-(6-bromo-1-oxospiro[3H-isoquinoline-4,1′-cyclopropane]-2-yl)-N-(1-pyridin-3-ylpiperidin-4-yl)acetamide], under setting [1], the IC50 came to 6510 nM.

As to `O=C(CN1CC2(CC2)c2cc(Br)ccc2C1=O)NC1CCNC1=O` (centres unmarked) [Example 406, 2-(6-bromo-1-oxospiro[3H-isoquinoline-4,1′-cyclopropane]-2-yl)-N-(2-oxopyrrolidin-3-yl)acetamide], the IC50 under setting [1] is 16100 nM.

Consider `C[C@H]1C[C@@]12CN(CC(=O)Nc1ncc(F)cn1)C(=O)c1ccc(Br)cc12` (single isomer, unassigned) [Example 281, 2-[(2′s,4r)-6-bromo-2′-methyl-1-oxospiro[3H-isoquinoline-4,1′-cyclopropane]-2-yl]-N-(5-fluoropyrimidin-2-yl)acetamide], for which the IC50 is less than 10000 nM under setting [2] and 108 nM under setting [3].

Take `O=C(CN1CC2(CC2)c2cc(Br)ccc2C1=O)Nc1ccc(=O)[nH]n1` [Example 430, 2-(6-bromo-1-oxospiro[3H-isoquinoline-4,1′-cyclopropane]-2-yl)-N-(6-oxo-1H-pyridazin-3-yl)acetamide]: the IC50 under setting [1] came to 634 nM.

Consider `Cn1ccnc1CNC(=O)CN1CC2(CC2)c2cc(Br)ccc2C1=O` [Example 120, 2-(6-bromo-1-oxospiro[3H-isoquinoline-4,1′-cyclopropane]-2-yl)-N-[(1-methylimidazol-2-yl)methyl]acetamide], for which the IC50 under setting [2] is more than 15000 nM and the IC50 under setting [1] stood at 24800 nM.

`O=C(CN1C[C@@]2(C[C@@H]2F)c2cc(C(F)(F)F)ccc2C1=O)Nc1ncccn1` (single isomer, unassigned) [Example 241, 2-[(2′s,4r)-2′-fluoro-1-oxo-6-(trifluoromethyl)spiro[3H-isoquinoline-4,1′-cyclopropane]-2-yl]-N-pyrimidin-2-ylacetamide]: the IC50 by setting is: under setting [4], less than 10000 nM; under setting [3], 134 nM.

As for `O=C(CN1CC2(CC2)c2cc(Br)ccc2C1=O)Nc1ccc(OC(F)F)cn1` [Example 36, 2-(6-bromo-1-oxo-spiro[3H-isoquinoline-4,1′-cyclopropane]-2-yl)-N-[5-(difluoromethoxy)-2-pyridyl]acetamide], the IC50 reads like this: under setting [2], less than 10000 nM; under setting [1], 2720 nM.

In the case of `O=C(CN1CC2(CC2)c2cc(Br)ccc2C1=O)Nc1nc2ccc(F)cc2o1` [Example 267, 2-(6-bromo-1-oxospiro[3H-isoquinoline-4,1′-cyclopropane]-2-yl)-N-(6-fluoro-1,3-benzoxazol-2-yl)acetamide], the IC50 was less than 10000 nM under setting [2] and 359 nM under setting [1].

Regarding `COCOc1cnc(NC(=O)CN2CC3(CC3)c3cc(Br)ccc3C2=O)nc1` [Example 316, 2-(6-bromo-1-oxospiro[3H-isoquinoline-4,1′-cyclopropane]-2-yl)-N-[5-(methoxymethoxy)pyrimidin-2-yl]acetamide], the IC50 under setting [1] was found to be 704 nM.

Consider `O=C(CN1C[C@]2(C[C@H]2F)c2cc(Br)ccc2C1=O)Nc1ncccn1` [Example 109], for which the IC50 is less than 10000 nM under setting [2] and 36 nM under setting [1].

Consider `O=C(CN1CC2(CC2)c2cc(Br)ccc2C1=O)Nc1ncc2c(n1)CCOC2` [Example 331, 2-(6-bromo-1-oxospiro[3H-isoquinoline-4,1′-cyclopropane]-2-yl)-N-(7,8-dihydro-5H-pyrano[4,3-d]pyrimidin-2-yl)acetamide], for which, under setting [1], the IC50 was 970 nM.

For the compound `O=C(CN1CC2(CC2)c2c(ccc(C3C[C@H]3F)c2F)C1=O)Nc1ncc(F)cn1` (single isomer, unassigned) [Example 303, 2-[5-fluoro-6-[(1r,2r)-2-fluorocyclopropyl]-1-oxospiro[3H-isoquinoline-4-1′-cyclopropane]-2-yl]-N-(5-fluoropyrimidin-2-yl)acetamide], the IC50 under setting [1] came out at 1440 nM.

As to `CCC1CN(CC(=O)Nc2ncncc2F)C(=O)c2ccc(Br)cc21` (centres unmarked) [Example 1, 2-(6-bromo-4-ethyl-1-oxo-3,4-dihydroisoquinolin-2(1H)-yl)-N-(5-fluoropyrimidin-4-yl)acetamide], the IC50 is less than 10000 nM under setting [2] and 1380 nM under setting [1].

As for `O=C(CN1C[C@@]2(C[C@@H]2F)c2c(ccc(Br)c2F)C1=O)Nc1ncc(C(F)(F)F)cn1` (single isomer, unassigned) [Example 226, 2-[(2′s,4r)-6-bromo-2′,5-difluoro-1-oxospiro[3H-isoquinoline-4,1′-cyclopropane]-2-yl]-N-[5-(trifluoromethyl)pyrimidin-2-yl]acetamide], the IC50 under setting [2] was less than 10000 nM and the IC50 under setting [1] was determined as 31 nM.

With `O=C(CN1CC2(CC2)c2cc(Br)c(F)cc2C1=O)Nc1ncc(F)cn1` [Example 99, 2-(6-bromo-7-fluoro-1-oxospiro[3H-isoquinoline-4,1′-cyclopropane]-2-yl)-N-(5-fluoropyrimidin-2-yl)acetamide], the IC50 under setting [2] is less than 10000 nM and the IC50 under setting [1] was 598 nM.

On to `CC(C(=O)Nc1ncc(F)cn1)N1CC2(CC2)c2cc(Br)ccc2C1=O` (centres unmarked) [Example 339, 2-(6-bromo-1-oxospiro[3H-isoquinoline-4,1′-cyclopropane]-2-yl)-N-(5-fluoropyrimidin-2-yl)propanamide], for which, under setting [1], the IC50 stood at 8290 nM.

On to `O=C(CN1CC2(CC2)c2cc(Br)ccc2C1=O)NC1CCN(c2ccc(Cl)nn2)CC1` [Example 165, 2-(6-bromo-1-oxospiro[3H-isoquinoline-4,1′-cyclopropane]-2-yl)-N-[1-(6-chloropyridazin-3-yl)piperidin-4-yl]acetamide], for which the IC50 runs as follows: under setting [2], less than 10000 nM; under setting [1], 1630 nM.

`O=C(CN1CC(C(F)F)c2cc(Br)ccc2C1=O)Nc1ncc(F)cn1` (centres unmarked) [Example 95, 2-[6-bromo-4-(difluoromethyl)-1-oxo-3,4-dihydroisoquinolin-2-yl]-N-(5-fluoropyrimidin-2-yl)acetamide]: the IC50 under setting [2] is less than 10000 nM and the IC50 under setting [1] turned out to be 320 nM.

Regarding `CCN1CC[C@@H](NC(=O)CN2CC3(CC3)c3cc(Br)ccc3C2=O)C1` [Example 384, 2-(6-bromo-1-oxospiro[3H-isoquinoline-4,1′-cyclopropane]-2-yl)-N-[(3R)-1-ethylpyrrolidin-3-yl]acetamide], the IC50 under setting [1] is 11600 nM.

As for `O=C(CN1CC2(CC2)c2cc(Br)ccc2C1=O)Nc1cccn2ccnc12` [Example 155, 2-(6-bromo-1-oxospiro[3H-isoquinoline-4,1′-cyclopropane]-2-yl)-N-imidazo[1,2-a]pyridin-8-ylacetamide], the IC50 reads like this: under setting [2], less than 10000 nM; under setting [1], 3610 nM.

For the compound `O=C(CN1CC2(CC2)c2cc(Br)ccc2C1=O)Nc1cc(C2CC2)n[nH]1` [Example 168, 2-(6-bromo-1-oxospiro[3H-isoquinoline-4,1′-cyclopropane]-2-yl)-N-(3-cyclopropyl-1H-pyrazol-5-yl)acetamide], the IC50 by setting is: under setting [2], less than 10000 nM; under setting [1], 2830 nM.

`O=C(CN1CC2(CC2)c2cc(Br)ccc2C1=O)Nc1nc2ccnn2cc1F` [Example 333, 2-(6-bromo-1-oxospiro[3H-isoquinoline-4,1′-cyclopropane]-2-yl)-N-(6-fluoropyrazolo[1,5-a]pyrimidin-5-yl)acetamide]: under setting [1], the IC50 is 895 nM.

Turning to `CCOC(=O)N1CCC(NC(=O)CN2CC3(CC3)c3cc(Br)ccc3C2=O)CC1` [Example 378, ethyl 4-[[2-(6-bromo-1-oxospiro[3H-isoquinoline-4,1′-cyclopropane]-2-yl)acetyl]amino]piperidine-1-carboxylate], under setting [1], the IC50 was 4980 nM.

As for `O=C(CN1CC(CF)c2cc(Br)ccc2C1=O)Nc1ncc(F)cn1` (single isomer, unassigned) [Example 293, 2-[6-bromo-4-(fluoromethyl)-1-oxo-3,4-dihydroisoquinolin-2-yl]-N-(5-fluoropyrimidin-2-yl)acetamide], the IC50 is less than 10000 nM under setting [4] and 134 nM under setting [3].

For `O=C(CN1CC2(CC2)c2cc(Br)ccc2C1=O)Nc1ccc(Cl)nn1` [Example 10], the IC50 is, setting by setting: under setting [2], less than 10000 nM; under setting [1], 1300 nM.

`CC1(O)CC(NC(=O)CN2CC3(CC3(F)F)c3c(ccc(Br)c3F)C2=O)C1` (single isomer, unassigned) [Example 326, N-(3-cis-hydroxy-3-methylcyclobutyl)-2-[6-bromo-1′,1′,5-trifluoro-1-oxospiro[3H-isoquinoline-4,2′-cyclopropane]-2-yl]acetamide]: the IC50 under setting [3] turned out to be 13 nM.

The record behind these values is US20230416205A1, “COMPOUNDS, COMPOSITIONS, AND METHODS” (Denali Therapeutics Inc, priority 2020, published 2023).
